Experimental data as given in patent publication US20260306641A1, “HELICASE DEGRADERS” (priority 2023, published 2026).

What was measured:
[1] = test system: T1, human CMG helicase (hCMG); assay: hCMG helicase fork-unwinding (strand displacement) assay; format: biochemical; details: for inhibition of hCMG helicase activity, SAR set: 500 μM compound
T1 construct: made in house; host or cells: High Five insect cells, baculovirus (11 viruses co-infected)
Protocol: The human CMG helicase was purified following the established and validated protocol of Hurwitz and colleagues(19,20), with minor modifications. A detailed description of the approach is shown here, to allow for comparisons to the methods described by the Hurwitz group.
High Five insect cells (2-3 million cells/ml, 1.5 L), were in cultured in a shaking incubator at 27° C. in suspension with ESF921 serum free medium (Expression Systems, CA; cat. #96-001-01), then co-infected for 60 hrs with 11 baculoviruses expressing human 6His2Flag-Cdc45, the human MCM hexamer (Mcm2, Mcm3, Mcm4, Mem5, Mcm6, Mcm7), and human GINS (GST-Sld5, Psf3, Psf2, and Psf1). Each virus was infected at an MOI of ~10 from individual virus stocks. Infected cells were harvested by centrifugation at 650×g for 5 min at 4° C., washed with cold PBS, frozen on dry ice, and stored at −80° C. until use. The cell pellet (~20 mL) was thawed on ice, resuspended in 45 ml Hypotonic Buffer [20 mM Hepes-NaOH (pH 7.5), 5 mM KCl, 1.5 mM MgCl2] with protease inhibitors (1 mM [COMPOUND LEFT OUT], 1 mM Benzamidine, 0.15 μM Aprotinin, 4 μM Leupeptin, and 1 μM Antipain), and kept on ice for 10 min before lysing by Dounce homogenization (tight fitting, 60 strokes). The cell extract was adjusted to 0.42 M potassium acetate and centrifuged at 43,000×g for 1 hr at 4° C. The cleared lysate was mixed with 0.75 ml glutathione beads (cat. #17-0756-05; GE Healthcare) pre-equilibrated with FEQ buffer [20 mM Hepes-NaOH (pH 7.5), 0.42 M potassium acetate, 5 mM KCl, 1.5 mM MgCl2] and incubated by rotation at 4° C. overnight. Following centrifugation at 290×g at 4° C., the bound glutathione beads were washed four times (15 min each wash) with 40 ml of FW buffer [20 mM Hepes-NaOH (pH 7.5), 0.42 M potassium acetate, 1 mM DTT, 1 mM EDTA, 0.01% NP40, 10% glycerol (vol/vol) with protease inhibitors as above] containing protease inhibitors (as above). Bound proteins were eluted at 4° C. three times (1 hr each elution) with 3.5 ml Q buffer [20 mM Hepes-NaOH (pH 7.5), 1 mM DTT, 1 mM EDTA, 0.01% NP40, 10% glycerol (vol/vol), and protease inhibitors as above] containing 0.15 M potassium acetate and 20 mM reduced glutathione. The eluted fractions were combined and applied to a HiTrap Q-Sepharose FF column (HiTrap Q FF 1 mL, cat. #17505301, Cytiva), pre-equilibrated 3× with 5 ml of Q buffer containing 0.15 M, 0.75 M, 0.15M potassium acetate, in sequence. The Q-Sepharose FF column was washed with 10 ml of FW buffer containing protease inhibitors (as above). The proteins were eluted with 10 ml of Q buffer containing 0.75 M potassium acetate. The eluted fraction was mixed with 0.15 ml of anti-Flag M2 affinity gel/beads and incubated while rotating at 4° C. overnight. After centrifugation at 290×g for 5 min at 4° C., the beads were washed three times with 10 ml PreScission buffer [50 mM Tris-HCl (pH 7.5), 0.15 M NaCl, 1 mM DTT, 1 mM EDTA] for 15 min at 4° C., and eluted at 4° C. three times (1 hr each elution) with 0.2 ml PreScission enzyme buffer containing 0.2 mg/ml 3×-Flag peptides. The combined eluates were incubated with 20 Units of PreScission Protease (GE Healthcare) and 0.1 mL glutathione beads for 4 hr at 4° C. The supernatant was layered onto a 15-40% glycerol gradient [25 mM Tris-HCl (pH 7.5), 50 mM NaCl, 1 mM DTT, 1 mM EDTA, 0.01% NP40, protease inhibitors as above] in a 5 mL ultra-centrifugation tube and centrifuged at 260,000×g for 14 hr at 4° C. Glycerol fractions (0.15 mL each fraction) were collected from bottom of tube and stored at −80° C. until use. Typically, fractions 6-9 contained complete hCMG (~750-800 kDa) and co-migrated with thyroglobulin.
Helicase fork-unwinding assays were performed at 37° C. for 1 hr in 20 μL reaction volumes using 2-4 μl of hCMG (~15-30 fmol), in a buffer consisting of 25 mM Hepes-NaOH (pH 7.5), 5 mM NaCl, 0.5 mM ATP, 10 mM magnesium acetate, 1 mM DTT, 0.1 mg/ml bovine serum albumin (BSA), and ~10 fmol of radiolabeled DNA forks (20). […]

[2] = test system: T1, human CMG helicase (hCMG); assay: hCMG ATPase activity, FP ADP^2 Transcreener assay; format: biochemical; details: role: product, 15 fmol hCMG, 500 μM ATP
Protocol: The fluorescent-polarization (FP) ADP-sensing assays were performed using the Transcreener® ADP^2 FP assay kit (cat #3010-1K, Bellbrook Labs). For hCMG inhibitor screening, assays were performed at 37° C. for 1 hr in 10 μl reactions in a 384-well plate (cat. #4514, Corning) using 2 μL of hCMG (~15 fmol), 25 mM Hepes-NaOH (pH 7.5), 10 mM NaCl, 0.5 mM ATP, 10 mM magnesium acetate, 1 mM DTT, 0.1 mg/ml BSA, and DNA fork substrates. […] Selected inhibitors or samples from a chemical library were added into the reactions when conducting the screening or testing inhibitor effectiveness. The NCI Diversity Set VI chemical library was obtained from the National Cancer Institute (Bethesda, MD).
The window of sensitivity for the ADP-sensing assays is determined by setting up two 10 μL control samples without any added hCMG helicase: a Low-FP mixture (4 nM ADP Alexa Fluor-633 Tracer alone) and a High-FP mixture (4 nM ADP Alexa Fluor-633 Tracer plus patented anti-ADP^2 Antibody). The amount of ADP^2 Antibody used had to be adjusted to account for the use of 500 μM ATP in our hCMG assays, versus 10 μM ATP in enzyme reactions typically assessed with standard kits prepared by BellBrook Labs. […] This was done according to the manufacturer by performing a titration with increasing ADP^2 Antibody, fixed 4 nM ADP Alexa Fluor-633 Tracer, and 500 μM ATP to determine the ~EC80-85 for millipol (mP) changes, which determined the optimal ADP^2 Antibody concentration to use as 0.64 mg/ml (FIG. 9A). Samples are read with a Perkin Elmer Envision II plate reader with optimized Cy5 (far-red) FP-compatible mirror and cubes (cat #2100-8390, Perkin Elmer). The Low-FP sample is the least polarized and gives a low mP reading, while the High-FP sample is the most polarized and gives the highest mP reading. The difference between the Low-FP and High-FP values defines the FP assay window, which is normally in a range of 150-200 mP under ideal conditions for screening purposes. The hCMG helicase hydrolyzes ATP to ADP and decreases the mP reading within this window, with an ideal change (ΔmP) in the FP window of at least 50% to be in a readable range for inhibitor screening (as per manufacturer). Potential hCMG chemical inhibitors reverse this effect and cause the mP readings to increase.
We performed a titration with increasing and decreasing concentrations of ADP and ATP, respectively, to assess the sensitivity of the FP assay in detecting ADP production (FIG. 9B). Consistent with the stated manufacturer predictions, the assay can reliably detect 1-3% changes in ADP production (i.e., 5-15 μM ADP production) in starting concentrations of ATP of 500 μM, with a Z′ efficiency between 0.6-0.8 (determined following manufacturer protocols).
Once the hCMG enzyme reactions are complete, 10 μL of 1× Stop Solution and Detection Buffer (buffer from BellBrook Labs; containing 4 nM ADP Alexa Fluor-633 Tracer plus ADP^2 Antibody) are added to each reaction, and to the High-FP control. The Low-FP control receives 10 μL of 1× Stop Solution and Detection Buffer containing only 4 nM ADP Alexa Fluor-633 Tracer (no Antibody). Samples are incubated at 25° C. for 1 hr, then read in the plate reader. […] Plate readings from these tests of potential positive hits should be similar to that seen with the Low-FP control, or such hits may instead be false-positives.

[3] = test system: MCM/CMG and replisome proteins in HaCaT cells; assay: Immunoblots of chromatin-bound or total proteins, synchronized HaCaT cells; format: cell-based, human; details: S-phase cells; etoposide 5 μM
[4] = test system: HaCaT cells; assay: BrdU labeling of DNA replication in synchronized HaCaT cells; format: cell-based, human; details: treated at 18 hrs, analyzed 3 hrs later; CA1/novobiocin 15 μM, etoposide 5 μM
Protocol: Verification of synchronization and determination of drug effects was performed by measuring the incorporation of bromo-deoxyuridine (BrdU) into replicating foci within nuclei. At times indicated, cells were pulse-labeled with 15 μM BrdU for 30 min, fixed with 4% paraformaldehyde, and analyzed by standard immunofluorescent techniques(40,51) with an anti-BrdU monoclonal antibody (Roche, clone no. BMC9318, RRID:AB_2313622). The average counts of three fields of 100 or more cells were used to determine the percentages of BrdU-labeled nuclei, +/−1 s.d.

T1 sequence (P49736 whole entry): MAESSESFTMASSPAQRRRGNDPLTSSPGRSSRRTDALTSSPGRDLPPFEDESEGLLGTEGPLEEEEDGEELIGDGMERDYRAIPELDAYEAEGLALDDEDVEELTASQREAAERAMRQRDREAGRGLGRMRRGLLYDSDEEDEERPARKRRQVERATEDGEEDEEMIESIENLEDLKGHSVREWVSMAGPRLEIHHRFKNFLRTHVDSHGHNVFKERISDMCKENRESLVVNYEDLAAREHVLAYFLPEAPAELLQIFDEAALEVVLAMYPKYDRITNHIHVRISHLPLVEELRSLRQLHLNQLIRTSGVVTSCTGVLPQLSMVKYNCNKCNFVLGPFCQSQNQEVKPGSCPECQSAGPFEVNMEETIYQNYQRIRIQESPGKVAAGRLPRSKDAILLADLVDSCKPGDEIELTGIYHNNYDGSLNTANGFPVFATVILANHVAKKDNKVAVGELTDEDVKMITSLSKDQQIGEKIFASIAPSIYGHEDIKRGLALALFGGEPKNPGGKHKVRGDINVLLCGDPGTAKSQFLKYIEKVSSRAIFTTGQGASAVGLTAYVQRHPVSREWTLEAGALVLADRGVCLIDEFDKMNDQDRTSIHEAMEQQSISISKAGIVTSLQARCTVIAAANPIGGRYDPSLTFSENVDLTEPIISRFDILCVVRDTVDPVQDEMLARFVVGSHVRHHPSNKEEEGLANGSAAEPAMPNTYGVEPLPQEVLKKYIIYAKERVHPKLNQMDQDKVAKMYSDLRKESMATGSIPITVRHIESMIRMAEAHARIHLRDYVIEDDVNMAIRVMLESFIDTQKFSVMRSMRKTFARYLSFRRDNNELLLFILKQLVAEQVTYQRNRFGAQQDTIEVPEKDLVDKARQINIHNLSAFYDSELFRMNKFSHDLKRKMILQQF
T1 sequence (P25205 whole entry, further chain): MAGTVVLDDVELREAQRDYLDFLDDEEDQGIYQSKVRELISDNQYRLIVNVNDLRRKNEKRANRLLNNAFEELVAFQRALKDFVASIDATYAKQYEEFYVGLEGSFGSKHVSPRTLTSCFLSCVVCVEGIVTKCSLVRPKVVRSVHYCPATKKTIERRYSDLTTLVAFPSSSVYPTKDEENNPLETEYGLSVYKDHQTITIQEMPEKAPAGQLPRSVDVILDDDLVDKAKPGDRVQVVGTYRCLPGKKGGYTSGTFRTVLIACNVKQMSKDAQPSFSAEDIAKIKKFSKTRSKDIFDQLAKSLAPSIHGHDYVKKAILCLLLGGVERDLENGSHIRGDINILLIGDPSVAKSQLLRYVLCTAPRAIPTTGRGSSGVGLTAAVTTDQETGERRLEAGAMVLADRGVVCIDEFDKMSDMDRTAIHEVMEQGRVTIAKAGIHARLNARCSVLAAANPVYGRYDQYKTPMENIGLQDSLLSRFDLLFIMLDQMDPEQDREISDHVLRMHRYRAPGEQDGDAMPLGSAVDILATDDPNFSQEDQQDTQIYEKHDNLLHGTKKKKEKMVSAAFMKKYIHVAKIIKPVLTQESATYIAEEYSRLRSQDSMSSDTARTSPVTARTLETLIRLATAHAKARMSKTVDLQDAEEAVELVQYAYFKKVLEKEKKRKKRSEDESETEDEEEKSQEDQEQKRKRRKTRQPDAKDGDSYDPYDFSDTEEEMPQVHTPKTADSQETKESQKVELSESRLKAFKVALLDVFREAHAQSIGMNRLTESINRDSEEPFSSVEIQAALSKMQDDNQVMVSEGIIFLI
T1 sequence (P33991 whole entry, further chain): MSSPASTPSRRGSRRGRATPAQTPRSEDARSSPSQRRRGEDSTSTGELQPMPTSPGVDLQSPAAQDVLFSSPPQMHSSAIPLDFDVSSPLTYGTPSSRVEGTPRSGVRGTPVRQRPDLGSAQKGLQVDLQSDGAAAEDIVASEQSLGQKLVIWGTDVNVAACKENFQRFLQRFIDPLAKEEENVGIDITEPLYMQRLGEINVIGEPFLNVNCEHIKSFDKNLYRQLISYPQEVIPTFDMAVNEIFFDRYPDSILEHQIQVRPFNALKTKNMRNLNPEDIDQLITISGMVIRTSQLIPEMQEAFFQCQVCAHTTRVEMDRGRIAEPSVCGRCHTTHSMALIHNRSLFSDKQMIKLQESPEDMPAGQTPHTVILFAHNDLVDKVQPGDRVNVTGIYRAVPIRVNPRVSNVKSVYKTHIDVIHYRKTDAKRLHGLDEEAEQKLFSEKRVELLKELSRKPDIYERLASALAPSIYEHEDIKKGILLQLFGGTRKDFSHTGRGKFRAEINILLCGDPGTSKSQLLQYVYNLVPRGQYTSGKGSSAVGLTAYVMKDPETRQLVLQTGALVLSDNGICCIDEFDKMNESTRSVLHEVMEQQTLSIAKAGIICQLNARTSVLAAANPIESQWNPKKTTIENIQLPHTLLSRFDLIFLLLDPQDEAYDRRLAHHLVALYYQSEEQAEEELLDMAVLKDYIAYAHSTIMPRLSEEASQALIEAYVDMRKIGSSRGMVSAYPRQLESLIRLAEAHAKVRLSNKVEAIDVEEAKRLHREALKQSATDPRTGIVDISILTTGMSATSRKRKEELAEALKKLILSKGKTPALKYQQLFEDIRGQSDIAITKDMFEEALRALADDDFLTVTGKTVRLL
T1 sequence (P33992 whole entry, further chain): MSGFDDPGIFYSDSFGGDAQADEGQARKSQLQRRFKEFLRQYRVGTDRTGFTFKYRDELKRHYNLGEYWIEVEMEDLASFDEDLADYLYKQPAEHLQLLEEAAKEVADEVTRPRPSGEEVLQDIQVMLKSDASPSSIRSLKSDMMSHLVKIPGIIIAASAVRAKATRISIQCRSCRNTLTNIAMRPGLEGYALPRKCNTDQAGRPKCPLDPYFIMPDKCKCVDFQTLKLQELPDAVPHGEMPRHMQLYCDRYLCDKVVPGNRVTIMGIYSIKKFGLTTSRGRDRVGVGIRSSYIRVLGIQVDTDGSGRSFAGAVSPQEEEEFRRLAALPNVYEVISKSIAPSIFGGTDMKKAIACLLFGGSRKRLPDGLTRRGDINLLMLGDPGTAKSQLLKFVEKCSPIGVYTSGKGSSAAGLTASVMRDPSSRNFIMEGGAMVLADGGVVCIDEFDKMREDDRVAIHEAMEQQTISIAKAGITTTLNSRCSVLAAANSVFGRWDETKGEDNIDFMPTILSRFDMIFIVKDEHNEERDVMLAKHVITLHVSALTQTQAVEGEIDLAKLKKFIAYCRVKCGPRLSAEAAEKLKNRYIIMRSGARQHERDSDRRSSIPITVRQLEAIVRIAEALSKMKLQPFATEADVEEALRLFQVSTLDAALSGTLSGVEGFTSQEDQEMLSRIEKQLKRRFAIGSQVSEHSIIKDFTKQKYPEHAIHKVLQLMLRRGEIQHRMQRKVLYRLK
T1 sequence (Q14566 whole entry, further chain): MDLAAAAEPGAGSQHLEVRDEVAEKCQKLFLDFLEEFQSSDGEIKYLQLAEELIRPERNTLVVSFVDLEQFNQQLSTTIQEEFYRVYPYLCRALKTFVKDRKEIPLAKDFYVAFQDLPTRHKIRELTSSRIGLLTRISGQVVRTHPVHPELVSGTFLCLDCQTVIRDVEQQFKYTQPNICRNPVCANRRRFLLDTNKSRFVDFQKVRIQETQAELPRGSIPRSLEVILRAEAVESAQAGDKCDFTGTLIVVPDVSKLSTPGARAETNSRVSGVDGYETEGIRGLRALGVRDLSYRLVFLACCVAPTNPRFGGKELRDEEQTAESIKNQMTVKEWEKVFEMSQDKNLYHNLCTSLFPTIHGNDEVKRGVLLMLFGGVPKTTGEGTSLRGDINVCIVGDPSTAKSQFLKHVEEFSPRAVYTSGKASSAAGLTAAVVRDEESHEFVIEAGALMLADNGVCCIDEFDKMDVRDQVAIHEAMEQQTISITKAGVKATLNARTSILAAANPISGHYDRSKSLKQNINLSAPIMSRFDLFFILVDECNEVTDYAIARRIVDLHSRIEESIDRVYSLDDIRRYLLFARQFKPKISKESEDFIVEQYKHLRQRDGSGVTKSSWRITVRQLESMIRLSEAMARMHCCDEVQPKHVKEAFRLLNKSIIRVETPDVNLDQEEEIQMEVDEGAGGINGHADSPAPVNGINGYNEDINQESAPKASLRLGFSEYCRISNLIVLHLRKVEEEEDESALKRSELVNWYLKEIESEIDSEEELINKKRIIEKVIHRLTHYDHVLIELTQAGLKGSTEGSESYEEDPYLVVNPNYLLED
T1 sequence (P33993 whole entry, further chain): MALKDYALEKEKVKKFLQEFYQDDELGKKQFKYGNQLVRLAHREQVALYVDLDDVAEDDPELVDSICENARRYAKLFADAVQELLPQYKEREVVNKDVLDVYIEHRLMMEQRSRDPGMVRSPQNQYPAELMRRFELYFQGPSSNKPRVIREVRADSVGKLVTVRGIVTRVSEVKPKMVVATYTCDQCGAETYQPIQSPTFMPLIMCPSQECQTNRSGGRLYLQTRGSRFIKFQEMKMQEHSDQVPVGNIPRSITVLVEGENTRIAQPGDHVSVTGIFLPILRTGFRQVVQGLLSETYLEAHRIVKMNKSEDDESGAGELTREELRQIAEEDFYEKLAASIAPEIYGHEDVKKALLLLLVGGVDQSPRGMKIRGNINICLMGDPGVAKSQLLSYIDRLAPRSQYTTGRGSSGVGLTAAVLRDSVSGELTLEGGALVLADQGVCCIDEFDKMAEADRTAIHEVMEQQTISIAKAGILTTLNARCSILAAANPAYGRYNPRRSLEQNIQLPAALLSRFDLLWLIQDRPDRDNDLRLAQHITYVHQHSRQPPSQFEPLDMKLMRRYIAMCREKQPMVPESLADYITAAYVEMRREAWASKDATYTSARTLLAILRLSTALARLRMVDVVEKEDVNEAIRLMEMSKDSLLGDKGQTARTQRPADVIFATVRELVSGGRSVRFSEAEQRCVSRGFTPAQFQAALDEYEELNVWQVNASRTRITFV

CO[C@@H]1[C@@H](OC(=O)c2ccc(C)[nH]2)[C@@H](O)C(O)OC1(C)C (mixture of isomers) [MBC-D1, (3R,4S,5R)-5,6-Dihydroxy-3-methoxy-2,2-dimethyltetrahydro-2H-pyran-4-y 5-methyl-1H-pyrrole-2-carboxylate]
inhibition of hCMG helicase activity, SAR set [1]: only a small level of inhibition

Nc1ncnc2c1ncn2[C@@H]1O[C@H](COP(=O)(O)OP(=O)(O)O)[C@@H](O)[C@H]1O [ADP]
ADP conversion rate by the hCMG [2]: ~ 1.5%
production of ADP ([2]; 10 μL reaction, 1 hr): 7 to 8 µM

Nc1ncnc2c1ncn2[C@@H]1O[C@H](COP(=O)(O)OP(=O)(O)OP(O)(O)=S)[C@@H](O)[C@H]1O [ATP-γ-S]
suppression of fork-unwinding activity ([1]; 500 μM ATP, increasing ATP-gamma-S): dose-dependent suppression of fork-unwinding activity

CO[C@@H]1[C@@H](OC(=O)c2ccc(C)[nH]2)[C@@H](O)[C@H](Oc2ccc3c(O)c(NC(=O)c4ccc(O)c(CC=C(C)C)c4)c(=O)oc3c2C)OC1(C)C [MBC, (3R,4S,5R,6R)-5-Hydroxy-6-((4-hydroxy-3-(4-hydroxy-3-(3-methylbut-2-en-1-yl)benzamido)-8-methyl-2-oxo-2H-chromen-7-yl)oxy)-3-methoxy-2,2-dimethyltetrahydro-2H-pyran-4-yl]
IC50 ([1]; fork-unwinding, read-out: IC50 for hCMG helicase inhibition): ~59 µM

CC(C)=CCc1cc(C(=O)Nc2c(O)c3ccc(O)c(C)c3oc2=O)ccc1O [MBC-D2, N-(4,7-Dihydroxy-8-methyl2-oxo-2H-chromen-3-yl)-4-hydroxy-3-(3-methylbut-2-en-1-yl)benzamide]
inhibition of hCMG helicase activity, SAR set [1]: somewhat effective at inhibiting the hCMG

CO[C@@H]1[C@@H](O)[C@@H](O)[C@H](Oc2ccc3c(O)c(NC(=O)c4ccc(O)c(CC=C(C)C)c4)c(=O)oc3c2C)OC1(C)C [MBC-D3, N-(7-(((2R,3R,4S,5R)-3,4-Dihydroxy-5-methoxy-6,6-dimethyltetrahydro-2H-pyran-2-yl)oxy)-4-hydroxy-8-methyl-2-oxo-2H-chromen-3-yl)-4-hydroxy-3-(3-methylbut-2-en-1-yl)benzamide]
inhibition of hCMG helicase activity, SAR set [1]: this inhibition of the hCMG is diminished when the noviose sugar is added

O=C(O)c1cn(C2CC2)c2cc(N3CCNCC3)c(F)cc2c1=O [ciprofloxacin]
hCMG helicase inhibition by quinolones ([1]; 100 μM or 1000 μM): do not inhibit the purified hCMG helicase

COc1cc([C@@H]2c3cc4c(cc3[C@@H](O[C@@H]3O[C@@H]5CO[C@@H](C)O[C@H]5[C@H](O)[C@H]3O)[C@H]3COC(=O)[C@H]23)OCO4)cc(OC)c1O [etoposide]
hCMG helicase inhibition by etoposide ([1]; fork-unwinding): does not inhibit hCMG activity
hCMG helicase inhibition by etoposide ([1]; fork-unwinding, listed as Etoposide): no effect on hCMG helicase activity in vitro
DNA polymerases-a and -d on chromatin [3]: small change
replisome components or RPA on chromatin [3]: does not significantly diminish replisome components or RPA on chromatin
DNA replication (BrdU), early S-phase treatment [4]: effectively suppressed DNA replication

(3R,4S,5R,6R)-5-Hydroxy-6-((4-hydroxy-3-(4-hydroxy-3-(3-methylbut-2-en-1-yl)benzamido)-8-methyl-2-oxo-2H-chromen-7-yl)oxy)-3-methoxy-2,2-dimethyltetrahydro-2H-pyran-4-yl [MBC]
inhibition of hCMG helicase activity, SAR set [1]: potently inhibit the hCMG
